Laboratory results: patent US20250353891A1 (MEDIMMUNE LIMITED, priority 2022, published 2025)
Starred links: 1 amine or outer side, 2 acyl side, 3 side chain; linkers in the order of their positions; H or OH if unused. Non-standard residues stand in square brackets, D forms with d. Residues, ends and D or L forms follow the SMILES beside them. Groups on a side chain read outwards from the residue. *: point of attachment. C18 diacid = O=C(O)CCCCCCCCCCCCCCCCC(=O)*; γGlu = O=C(O)[C@H](CCC(=O)[*:2])N[*:1]; αMeF = C[C@](N)(Cc1ccccc1)C(=O)O; AEEA = NCCOCCOCC(=O)O; Aib = CC(C)(N)C(=O)O

Tests used:
[1] = molecular target: human GLP-1 receptor (hGLP-1R) (Homo sapiens, UniProt P43220); assay: cAMP production (HTRF) in CHO cells expressing hGLP-1R; format: cell-based; design: expressed in transfected cells; conditions: for EC50: Table 6, peptides modified at position 17, cAMP in CHO hGLP-1R cells, geometric mean, read-out: hGLP-1R EC50; for % Relative Potency Ratio: Table 6, % GLP-1R activity relative to GLP-1 / % GlucR activity relative to glucagon
In short: (§1)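 Cells were resuspended in assay buffer at batch-optimized density, typically 1×10^5 cells/mL for hGLP-1R and 2×10^5 cells/mL for hGCGR. After 30 min incubation at room temperature with compound, cAMP was measured by two-step HTRF. EC50 values came from 4-parameter logistic fits of % Delta F.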

[2] = molecular target: human glucagon receptor (hGCGR) (Homo sapiens, UniProt P47871); assay: cAMP production (HTRF) in CHO cells expressing hGCGR; format: cell-based; design: expressed in transfected cells; conditions: Table 6, peptides modified at position 17; cAMP in CHO hGCGR cells; geometric mean; read-out: hGluc-R EC50
In short: as §1

human GLP-1 receptor (hGLP-1R), sequence (P43220 24-463): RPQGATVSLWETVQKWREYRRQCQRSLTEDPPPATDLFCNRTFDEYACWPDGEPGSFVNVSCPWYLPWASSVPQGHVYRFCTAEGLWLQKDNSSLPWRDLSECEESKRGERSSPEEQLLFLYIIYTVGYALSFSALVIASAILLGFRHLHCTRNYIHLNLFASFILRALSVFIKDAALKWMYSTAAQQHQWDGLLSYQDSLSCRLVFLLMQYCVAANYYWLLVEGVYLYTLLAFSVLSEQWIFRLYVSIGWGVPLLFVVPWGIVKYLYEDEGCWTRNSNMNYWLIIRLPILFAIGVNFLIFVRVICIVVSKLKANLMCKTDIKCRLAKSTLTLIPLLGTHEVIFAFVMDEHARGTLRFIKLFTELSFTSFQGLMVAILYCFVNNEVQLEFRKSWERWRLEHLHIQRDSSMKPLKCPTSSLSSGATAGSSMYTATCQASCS
human glucagon receptor (hGCGR), sequence (P47871 26-477): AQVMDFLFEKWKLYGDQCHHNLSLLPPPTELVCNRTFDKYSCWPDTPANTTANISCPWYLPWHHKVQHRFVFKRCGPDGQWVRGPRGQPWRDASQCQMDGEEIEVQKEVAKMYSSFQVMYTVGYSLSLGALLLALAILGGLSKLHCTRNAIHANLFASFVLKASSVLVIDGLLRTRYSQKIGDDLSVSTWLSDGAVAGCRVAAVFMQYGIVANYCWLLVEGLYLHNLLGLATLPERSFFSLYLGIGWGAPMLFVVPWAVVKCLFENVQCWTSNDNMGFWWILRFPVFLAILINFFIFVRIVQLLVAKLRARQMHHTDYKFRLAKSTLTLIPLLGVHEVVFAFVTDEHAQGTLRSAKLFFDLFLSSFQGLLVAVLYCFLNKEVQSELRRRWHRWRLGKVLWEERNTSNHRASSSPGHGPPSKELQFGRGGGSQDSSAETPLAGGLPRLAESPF

Row | Compound | EC50 [1] | % Relative Potency Ratio [1] | EC50 [2]
1 | CC(C)C[C@H](NC(=O)[C@H](Cc1c[nH]c2ccccc12)NC(=O)[C@H](CCCNC(=N)N)NC(=O)[C@@H](NC(=O)[C@H](Cc1ccccc1)NC(=O)[C@H](CC(=O)O)NC(=O)[C@H](CCC(N)=O)NC(=O)[C@H](C)NC(=O)[C@H](CCCNC(=N)N)NC(=O)[C@H](CCCCNC(=O)COCCOCCNC(=O)COCCOCCNC(=O)CC[C@H](NC(=O)CCCCCCCCCCCCCCCCC(=O)O)C(=O)O)NC(=O)[C@H](CO)NC(=O)[C@H](CC(=O)O)NC(=O)[C@H](CC(C)C)NC(=O)[C@](C)(Cc1ccccc1)NC(=O)[C@H](CCCCN)NC(=O)[C@H](CO)NC(=O)[C@@H](NC(=O)[C@H](CC(=O)O)NC(=O)[C@H](CO)NC(=O)[C@@H](NC(=O)[C@H](Cc1ccccc1)NC(=O)[C@@H](NC(=O)CNC(=O)[C@H](CCC(N)=O)NC(=O)C(C)(C)NC(=O)[C@@H](N)Cc1c[nH]cn1)[C@@H](C)O)[C@@H](C)O)C(C)C)C(C)C)C(=O)N[C@@H](CC(C)C)C(=O)N[C@@H](CCC(=O)O)C(=O)NC(C)(C)C(=O)NCC(=O)O [Peptide 31] (H-H[Aib]QGTFTSDVSK[αMeF]LDSK([AEEA-AEEA-γGlu-C18 diacid])RAQDFVRWLLE[Aib]G-OH; N-terminus assumed) | 0.0413 nM | 2.7 | 0.0568 nM
2 | CC[C@H](C)[C@H](NC(=O)[C@H](Cc1c[nH]c2ccccc12)NC(=O)[C@H](CCC(N)=O)NC(=O)[C@@H](NC(=O)[C@H](Cc1ccccc1)NC(=O)[C@H](CC(=O)O)NC(=O)C(C)(C)NC(=O)[C@H](C)NC(=O)[C@H](CCCNC(=N)N)NC(=O)[C@H](CCCCNC(=O)CC[C@H](NC(=O)CCCCCCCCCCCCCCCCC(=O)O)C(=O)O)NC(=O)[C@H](CO)NC(=O)[C@H](CC(=O)O)NC(=O)[C@H](CC(C)C)NC(=O)[C@](C)(Cc1ccccc1)NC(=O)[C@H](CCCCN)NC(=O)[C@H](CO)NC(=O)[C@@H](NC(=O)[C@H](CC(=O)O)NC(=O)[C@H](CO)NC(=O)[C@@H](NC(=O)[C@H](Cc1ccccc1)NC(=O)[C@@H](NC(=O)CNC(=O)[C@H](CCC(N)=O)NC(=O)C(C)(C)NC(=O)[C@@H](N)Cc1c[nH]cn1)[C@@H](C)O)[C@@H](C)O)C(C)C)C(C)C)C(=O)N[C@@H](C)C(=O)N[C@@H](CC(N)=O)C(=O)N[C@H](C(N)=O)[C@@H](C)O [Peptide 32] (H-H[Aib]QGTFTSDVSK[αMeF]LDSK([γGlu-C18 diacid])RA[Aib]DFVQWIANT-NH2; N-terminus assumed) | 0.013 nM | 36.7 | 0.24 nM
3 | CC(C)C[C@H](NC(=O)[C@H](Cc1c[nH]c2ccccc12)NC(=O)[C@H](CCC(N)=O)NC(=O)[C@@H](NC(=O)[C@H](Cc1ccccc1)NC(=O)[C@H](CC(=O)O)NC(=O)[C@H](CCC(N)=O)NC(=O)[C@H](C)NC(=O)[C@H](CCCNC(=N)N)NC(=O)[C@H](CCCCNC(=O)COCCOCCNC(=O)COCCOCCNC(=O)CC[C@H](NC(=O)CCCCCCCCCCCCCCCCC(=O)O)C(=O)O)NC(=O)[C@H](CO)NC(=O)[C@H](CC(=O)O)NC(=O)[C@H](CC(C)C)NC(=O)[C@](C)(Cc1ccccc1)NC(=O)[C@H](CCCCN)NC(=O)[C@H](CO)NC(=O)[C@@H](NC(=O)[C@H](CC(=O)O)NC(=O)[C@H](CO)NC(=O)[C@@H](NC(=O)[C@H](Cc1ccccc1)NC(=O)[C@@H](NC(=O)CNC(=O)[C@H](CCC(N)=O)NC(=O)C(C)(C)NC(=O)[C@@H](N)Cc1c[nH]cn1)[C@@H](C)O)[C@@H](C)O)C(C)C)C(C)C)C(=O)N[C@@H](CCC(=O)O)C(=O)NC(C)(C)C(=O)N[C@H](C(=O)O)[C@@H](C)O [Peptide 33] (H-H[Aib]QGTFTSDVSK[αMeF]LDSK([AEEA-AEEA-γGlu-C18 diacid])RAQDFVQWLE[Aib]T-OH) | 0.213 nM | 5.1 | 0.548 nM
4 | CC(C)C[C@H](NC(=O)[C@H](Cc1c[nH]c2ccccc12)NC(=O)[C@H](CCC(N)=O)NC(=O)[C@@H](NC(=O)[C@H](Cc1ccccc1)NC(=O)[C@H](CC(=O)O)NC(=O)[C@H](CCC(N)=O)NC(=O)[C@H](C)NC(=O)[C@H](CCCNC(=N)N)NC(=O)[C@H](CCCCNC(=O)COCCOCCNC(=O)COCCOCCNC(=O)CC[C@H](NC(=O)CCCCCCCCCCCCCCCCC(=O)O)C(=O)O)NC(=O)[C@H](CO)NC(=O)[C@H](CC(=O)O)NC(=O)[C@H](CC(C)C)NC(=O)[C@](C)(Cc1ccccc1)NC(=O)[C@H](CCCCN)NC(=O)[C@H](CO)NC(=O)[C@@H](NC(=O)[C@H](CC(=O)O)NC(=O)[C@H](CO)NC(=O)[C@@H](NC(=O)[C@H](Cc1ccccc1)NC(=O)[C@@H](NC(=O)CNC(=O)[C@H](CCC(N)=O)NC(=O)C(C)(C)NC(=O)[C@@H](N)Cc1c[nH]cn1)[C@@H](C)O)[C@@H](C)O)C(C)C)C(C)C)C(=O)N[C@@H](CC(C)C)C(=O)NC(C)(C)C(=O)N[C@@H](CCC(=O)O)C(=O)O [Peptide 34] (H-H[Aib]QGTFTSDVSK[αMeF]LDSK([AEEA-AEEA-γGlu-C18 diacid])RAQDFVQWLL[Aib]E-OH; N-terminus assumed) | 0.0824 nM | 3.9 | 0.161 nM

Second part, the compound after the results:

Row | EC50 [1] | % Relative Potency Ratio [1] | EC50 [2] | Compound
5 | 0.0837 nM | 7.9 | 0.335 nM | CC(C)C[C@H](NC(=O)[C@H](Cc1c[nH]c2ccccc12)NC(=O)[C@H](CCC(N)=O)NC(=O)[C@@H](NC(=O)[C@H](Cc1ccccc1)NC(=O)[C@H](CC(=O)O)NC(=O)[C@H](CCC(N)=O)NC(=O)[C@H](C)NC(=O)[C@H](CCCNC(=N)N)NC(=O)[C@H](CCCCNC(=O)COCCOCCNC(=O)COCCOCCNC(=O)CC[C@H](NC(=O)CCCCCCCCCCCCCCCCC(=O)O)C(=O)O)NC(=O)[C@@H](NC(=O)[C@H](CC(=O)O)NC(=O)[C@H](CC(C)C)NC(=O)[C@](C)(Cc1ccccc1)NC(=O)[C@H](CCCCN)NC(=O)[C@H](CO)NC(=O)[C@@H](NC(=O)[C@H](CC(=O)O)NC(=O)[C@H](CO)NC(=O)[C@@H](NC(=O)[C@H](Cc1ccccc1)NC(=O)[C@@H](NC(=O)CNC(=O)[C@H](CCC(N)=O)NC(=O)C(C)(C)NC(=O)[C@@H](N)Cc1c[nH]cn1)[C@@H](C)O)[C@@H](C)O)C(C)C)[C@@H](C)O)C(C)C)C(=O)N[C@@H](CC(C)C)C(=O)NC(C)(C)C(=O)N[C@H](C(=O)O)[C@@H](C)O [Peptide 35] (H-H[Aib]QGTFTSDVSK[αMeF]LDTK([AEEA-AEEA-γGlu-C18 diacid])RAQDFVQWLL[Aib]T-OH; N-terminus assumed)
6 | 0.0431 nM | 12.8 | 0.278 nM | CC(C)C[C@H](NC(=O)[C@H](Cc1c[nH]c2ccccc12)NC(=O)[C@H](CCC(N)=O)NC(=O)[C@@H](NC(=O)[C@H](Cc1ccccc1)NC(=O)[C@H](CC(=O)O)NC(=O)[C@H](CCCNC(=N)N)NC(=O)[C@H](C)NC(=O)[C@H](CCCNC(=N)N)NC(=O)[C@H](CCCCNC(=O)COCCOCCNC(=O)COCCOCCNC(=O)CC[C@H](NC(=O)CCCCCCCCCCCCCCCCC(=O)O)C(=O)O)NC(=O)[C@H](CO)NC(=O)[C@H](CC(=O)O)NC(=O)[C@H](CC(C)C)NC(=O)[C@](C)(Cc1ccccc1)NC(=O)[C@H](CCCCN)NC(=O)[C@H](CO)NC(=O)[C@@H](NC(=O)[C@H](CC(=O)O)NC(=O)[C@H](CO)NC(=O)[C@@H](NC(=O)[C@H](Cc1ccccc1)NC(=O)[C@@H](NC(=O)CNC(=O)[C@H](CCC(N)=O)NC(=O)C(C)(C)NC(=O)[C@@H](N)Cc1c[nH]cn1)[C@@H](C)O)[C@@H](C)O)C(C)C)C(C)C)C(=O)N[C@@H](CC(C)C)C(=O)NC(C)(C)C(=O)N[C@H](C(=O)O)[C@@H](C)O [Peptide 36] (H-H[Aib]QGTFTSDVSK[αMeF]LDSK([AEEA-AEEA-γGlu-C18 diacid])RARDFVQWLL[Aib]T-OH; N-terminus assumed)
7 | 0.0686 nM | 79.2 | 2.75 nM | CC(C)C[C@H](NC(=O)[C@H](Cc1c[nH]c2ccccc12)NC(=O)[C@H](CCC(N)=O)NC(=O)[C@@H](NC(=O)[C@H](Cc1ccccc1)NC(=O)[C@H](CC(=O)O)NC(=O)[C@H](CCC(=O)O)NC(=O)[C@H](C)NC(=O)[C@H](CCCNC(=N)N)NC(=O)[C@H](CCCCNC(=O)COCCOCCNC(=O)COCCOCCNC(=O)CC[C@H](NC(=O)CCCCCCCCCCCCCCCCC(=O)O)C(=O)O)NC(=O)[C@H](CO)NC(=O)[C@H](CC(=O)O)NC(=O)[C@H](CC(C)C)NC(=O)[C@](C)(Cc1ccccc1)NC(=O)[C@H](CCCCN)NC(=O)[C@H](CO)NC(=O)[C@@H](NC(=O)[C@H](CC(=O)O)NC(=O)[C@H](CO)NC(=O)[C@@H](NC(=O)[C@H](Cc1ccccc1)NC(=O)[C@@H](NC(=O)CNC(=O)[C@H](CCC(N)=O)NC(=O)C(C)(C)NC(=O)[C@@H](N)Cc1c[nH]cn1)[C@@H](C)O)[C@@H](C)O)C(C)C)C(C)C)C(=O)N[C@@H](CC(C)C)C(=O)NC(C)(C)C(=O)N[C@H](C(=O)O)[C@@H](C)O [Peptide 37] (H-H[Aib]QGTFTSDVSK[αMeF]LDSK([AEEA-AEEA-γGlu-C18 diacid])RAEDFVQWLL[Aib]T-OH)
8 | 0.0756 nM | 11.6 | 0.441 nM | CC(C)C[C@H](NC(=O)[C@H](Cc1c[nH]c2ccccc12)NC(=O)[C@H](CCC(=O)O)NC(=O)[C@@H](NC(=O)[C@H](Cc1ccccc1)NC(=O)[C@H](CC(=O)O)NC(=O)[C@H](CCC(N)=O)NC(=O)[C@H](C)NC(=O)[C@H](CCCNC(=N)N)NC(=O)[C@H](CCCCNC(=O)COCCOCCNC(=O)COCCOCCNC(=O)CC[C@H](NC(=O)CCCCCCCCCCCCCCCCC(=O)O)C(=O)O)NC(=O)[C@H](CO)NC(=O)[C@H](CC(=O)O)NC(=O)[C@H](CC(C)C)NC(=O)[C@](C)(Cc1ccccc1)NC(=O)[C@H](CCCCN)NC(=O)[C@H](CO)NC(=O)[C@@H](NC(=O)[C@H](CC(=O)O)NC(=O)[C@H](CO)NC(=O)[C@@H](NC(=O)[C@H](Cc1ccccc1)NC(=O)[C@@H](NC(=O)CNC(=O)[C@H](CCC(N)=O)NC(=O)C(C)(C)NC(=O)[C@@H](N)Cc1c[nH]cn1)[C@@H](C)O)[C@@H](C)O)C(C)C)C(C)C)C(=O)N[C@@H](CC(C)C)C(=O)NC(C)(C)C(=O)N[C@H](C(=O)O)[C@@H](C)O [Peptide 38] (H-H[Aib]QGTFTSDVSK[αMeF]LDSK([AEEA-AEEA-γGlu-C18 diacid])RAQDFVEWLL[Aib]T-OH; N-terminus assumed)
